From patent US10208056B2, “Condensed tricyclic compounds as protein kinase inhibitors” (FUNDACIÓN DEL SECTOR PÚBLICO ESTATAL CENTRO NACIONAL DE …, priority 2015, dated 2019)

Assays:
SW620 cells = test: Cell cycle assay (propidium iodine, flow cytometry); type: cell-based, human; conditions: SW620, 24 h, increasing concentrations
Experimental: Compounds can be screened for their ability to affect the cell cycle using a propidium iodine assay and analysis by flow cytometry. SW620 are plated at 500000 cells per well in 6-well plates (Solmeglas 13118) in RPMI media (Sigma-Aldrich R6504) supplemented with 10% foetal bovine serum (Sigma-Aldrich F7524), Penicillin/Streptomycin solution diluted 1:100 (Gibco 15070-063), and fungizone (Gibco, 15290-018), and allowed to adhere overnight at 37° C. in 5% CO2. Cells are then treated 24 h hours with compounds at final concentration of 5, 2.5, 1 and 0.5 μM. Cells are collected by trypsinization and centrifugation at 1250 rpm and washed with PBS (Sigma Ref. D8537). Cells are fixated with 70% cold ethanol (Merck Ref 100983)) and kept at 4° C. at least for 12 hours. After centrifugation, cells are washed with PBS and DNA is stained with a solution of 0.2 mg/mL RNAase (Quiagen Ref 1007885) and 0.02 mg/mL propidium iodine (Sigma Ref P4864). After 30 minutes incubation at room temperature in the dark cells are analyzed by FACSCalibur™ (BD biosciences) and Flowjo software.

[1] = tested on: SW620 human colon cancer xenografts; test: In vivo target modulation studies (P-STAT1 S727 in tumors); parameters: species or system mice; conditions: single oral dose 5 mg/kg; tumors sampled 1, 4, 8 and 24 h
Experimental: The in vivo potency of the compounds was measured determining target modulation in human colon xenografts. Eight weeks old female athymic nude mice (Harlan Sprague Dawley Inc) are subcutaneously grafted with 10*10^6 SW620 human colon cancer cells. When the tumors reach a size of 200-400 mm^3 the mice are dosed orally with 5 mg/kg of Example 43 or vehicle. Tumors are excised 1, 4, 8 and 24 h after administration (n=3 mice per time point) and are processed for western blot and for HPLC/MS/MS in order to determine the concentration for Example 43 in the tumor. […] The supernatants are removed and protein concentration is determined by Bradford method (Bio-Rad Protein Assay). […] 30-60 μg of total proteins extracts are analyzed by western blot for STAT1P/STAT1 modulation as has been described in the cellular CDK8 inhibition assay. […] Specific solid phase extraction methods as well as LC-MS/MS analysis and quantification methods were developed, reaching LLOQs of 1 ng/ml. […]

panel of 468 kinases = test: KINOMEscan kinase panel selectivity score; type: binding
Excerpt: Compounds of the invention may have the advantage that they are effective inhibitors of protein kinases (e.g. CDK8 and/or haspin). […] For instance, the compounds of the invention may be selective inhibitors of certain protein or lipid kinases. […] Compounds that are selective inhibitors may be identified by screening in a 453-468 kinases panel (KINOMEscan™ from DiscoveRx). For example, selective inhibitors may show a selectivity score of S(20)<0.05.
Selectivity Score (or S-score) is a quantitative measure of a compound's selectivity. It is calculated by dividing the number of kinases to which a compound binds by the total number of distinct kinases tested (i.e. S=Number of hits/Number of assays).

SW620 = test: Combination assay, SW620; type: cell-based, human
How it was run: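 Cells treated with example compounds combined with chemotherapeutic agents, proliferation read by CellTiter-Glo. Combination index from the Chou–Talalay method (CI <0.8 synergy, 0.8–1.2 additivity, >1.2 antagonism); EC50 of the combination also derived alongside single-agent EC50s.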

MDAMB231 = test: Combination assay, MDAMB231; type: cell-based
Experimental: (§1) The combination index (CI) of combinations of certain example compounds and various chemotherapeutic agents in the CellTitetI-Glo® in vitro cell proliferation assays may be tested. A combination index score is calculated by the Chou and Talalay method (CalcuSyn software, Biosoft). The strength of synergy is scored using the ranking system Chou and Talalay: CI less than 0.8 indicates synergy, CI between 0.8 and 1.2 indicates additivity and CI greater than 1.2 indicates antagonism.
(§2) The EC50 values of representative combinations are also calculated. The individually measured EC50 values of the chemotherapeutic agent and the example compounds are compared to the EC50 value of the combination. The cell lines are characterised by tumor type. Combination assays are performed as described in: “Pim 1 kinase inhibitor ETP-45299 suppresses cellular proliferation and synergizes with PI3K inhibition”. Blanco-Aparicio, Carmen; Collazo, Ana Maria Garcia; Oyarzabal, Julen; Leal, Juan F.; Albaran, Maria Isabel; Lima, Francisco Ramos; Pequeno, Belen; Ajenjo, Nuria; Becerra, Mercedes; Alfonso, Patricia; Reymundo, Maria Isabel; Palacios, Irene; Mateos, Genoveva; Quinones, Helena; Corrionero, Ana; Carnero, Amancio; Pevarello, Paolo; Lopez, Ana Rodriguez; Fominaya, Jesus; Pastor, Joaquin; Bischoff, James R. Cancer Letters (Shannon, Ireland) 2011, 300(2), 145-153

SKMEL19 = test: Combination assay, SKMEL19; type: cell-based
Experimental: as §1, §2

BXPC-3 = test: Combination assay, BXPC-3; type: cell-based
Experimental: as §1, §2

[2] = SW620, combination with ABT-751
[3] = SW620, combination with Alisertib
[4] = SW620, combination with Crizotinib
[5] = SW620, combination with Elesclomol
[6] = SW620, combination with Oxaliplatin
[7] = MDAMB231, combination with Elesclomol
[8] = SKMEL19, combination with Crizotinib
[9] = SKMEL19, combination with Elesclomol
[10] = BXPC-3, combination with Crizotinib
[11] = BXPC-3, combination with Elesclomol

Compound: CCn1c(C(N)=O)cc2c1-c1ccncc1OC2(C)C [Example 43]
- effect on cell cycle (SW620 cells): induced G2M arrest and apoptosis
- target modulation in vivo, P-STAT1 (S727) [1]: Clear target modulation is observed at 1 and 4 h
- Selectivity score S(20) (panel of 468 kinases): 0.038
- GI50 (SW620; Homo sapiens, SW-620, SW620, example compound alone, read-out: CDK8 inh GI50): 4 µM
- Combination index (CI) (SW620; [2]): 0.18
- Synergy (SW620; [2]): +++ (0.1 < CI < 0.3 (+++))
- Combination index (CI) (SW620; [3]): 0.52
- Synergy (SW620; [3]): ++ (0.3 < CI < 0.7 (++))
- Combination index (CI) (SW620; [4]): 0.65
- Synergy (SW620; [4]): ++ (0.3 < CI < 0.7 (++))
- Combination index (CI) (SW620; [5]): 0.05
- Synergy (SW620; [5]): ++++ (CI < 0.1 (++++))
- Combination index (CI) (SW620; [6]): 0.53
- Synergy (SW620; [6]): ++ (0.3 < CI < 0.7 (++))
- Combination index (CI) (SW620; SW620, combination with Taxol): 0.28
- Synergy (SW620; SW620, combination with Taxol): +++ (0.1 < CI < 0.3 (+++))
- GI50 (MDAMB231; Homo sapiens, MDA-MB-231, MDAMB231, example compound alone, read-out: CDK8 inh GI50): 5 µM
- Combination index (CI) (MDAMB231; [7]): 0.59
- Synergy (MDAMB231; [7]): ++ (0.3 < CI < 0.7 (++))
- GI50 (SKMEL19; Homo sapiens, SK-MEL19, SKMEL19, example compound alone, read-out: CDK8 inh GI50): 1.25 µM
- Combination index (CI) (SKMEL19; [8]): 0.55
- Synergy (SKMEL19; [8]): ++ (0.3 < CI < 0.7 (++))
- Combination index (CI) (SKMEL19; [9]): 0.49
- Synergy (SKMEL19; [9]): ++ (0.3 < CI < 0.7 (++))
- Combination index (CI) (BXPC-3; [10]): 0.72
- Synergy (BXPC-3; [10]): ++ (0.3 < CI < 0.7 (++))
- Combination index (CI) (BXPC-3; [11]): 0.25
- Synergy (BXPC-3; [11]): ++ (0.3 < CI < 0.7 (++))
- GI50 (BXPC-3; Homo sapiens, BXPC-3, example compound alone, read-out: CDK8 inh GI50): 5 µM
